Measured values: DBAASP
Converted amounts (≈) assume the structure as drawn.

Columns and labels:
Assay in all cases: ≥ marks a high value that may be exact or a test limit, other limits are often not marked, values filed in µg/mL are converted to µM
[1] = system: Staphylococcus aureus ATCC BAA-1556
Staphylococcus aureus MR = system: Staphylococcus aureus MR
[2] = system: Staphylococcus aureus ATCC 25923
[3] = system: Acinetobacter baumannii ATCC 19606
[4] = system: Candida albicans ATCC 90028
Acinetobacter baumannii = system: Acinetobacter baumannii
[5] = system: Escherichia coli ATCC 25922
[6] = system: Staphylococcus aureus ATCC 29213
[7] = system: Pseudomonas aeruginosa ATCC 27853
[8] = system: Staphylococcus aureus ATCC 43300
[9] = system: Staphylococcus epidermidis ATCC 12228
[10] = system: Bacillus subtilis CMCC 63501
Escherichia coli UB1005 = system: Escherichia coli UB1005
[11] = system: Salmonella enterica subsp. enterica serovar Pullorum C79-13
[12] = system: Salmonella enterica subsp. enterica serovar Typhimurium ATCC 14028
Enterobacter cloacae = system: Enterobacter cloacae
Bacillus cereus = system: Bacillus cereus
Enterococcus faecalis = system: Enterococcus faecalis
Streptococcus uberis = system: Streptococcus uberis
Pasteurella multocida = system: Pasteurella multocida
Escherichia coli = system: Escherichia coli
Listeria innocua = system: Listeria innocua
Micrococcus luteus = system: Micrococcus luteus
Pseudomonas aeruginosa = system: Pseudomonas aeruginosa
Leuconostoc lactis = system: Leuconostoc lactis
[13] = system: Staphylococcus epidermidis
Staphylococcus aureus = system: Staphylococcus aureus
[14] = system: Enterococcus faecalis ATCC 29212

Row | SMILES | MIC [1] [µM] | MIC (Bacillus cereus) [µM] | MIC (Streptococcus uberis) [µM] | MIC (Pasteurella multocida) [µM] | MIC (Escherichia coli) [µM] | MIC (Listeria innocua) [µM] | MIC (Micrococcus luteus) [µM] | MIC (Leuconostoc lactis) [µM] | MIC [13] [µM] | MIC (Staphylococcus aureus) [µM] | further results
1 | CC[C@H](C)[C@H](NC(=O)[C@H](CCCN=C(N)N)NC(=O)[C@H](CCCCN)NC(=O)[C@@H](NC(=O)[C@@H](NC(=O)[C@H](CCCN=C(N)N)NC(=O)[C@@H](N)CCCCN)[C@@H](C)CC)C(C)C)C(=O)N[C@@H](CCCCN)C(=O)N[C@@H](CC(=O)O)C(=O)N[C@@H](Cc1ccccc1)C(=O)N[C@@H](CC(C)C)C(=O)N[C@@H](CCCN=C(N)N)C(=O)O [KRIVKRIKDFLR] |  |  |  |  |  |  |  |  |  |  | MIC (Staphylococcus aureus MR): ≥ 204 µM; MIC [2]: ≥ 204 µM; MIC [3]: ≥ 102 µM; MIC [4]: 2.5 µM (≈ 3.93 µg/mL); MIC (Acinetobacter baumannii): ≥ 50.9 µM; MIC [5]: 1.25 µM (≈ 1.96 µg/mL); MIC [6]: 2.5 µM (≈ 3.93 µg/mL); MIC [7]: 2.5 µM (≈ 3.93 µg/mL)
2 | CC[C@H](C)[C@H](NC(=O)[C@H](Cc1ccc(O)cc1)NC(=O)[C@H](CCCN=C(N)N)NC(=O)[C@H](CCCCN)NC(=O)[C@H](Cc1ccc(O)cc1)NC(=O)[C@@H](N)CC(C)C)C(=O)N[C@@H](CC(C)C)C(=O)N[C@@H](CCCN=C(N)N)C(=O)N[C@@H](CCCCN)C(=O)N[C@@H](Cc1ccccc1)C(=O)N[C@@H](CCCCN)C(=O)N[C@@H](Cc1ccccc1)C(=O)N[C@@H](CC(C)C)C(=O)N[C@@H](CCCCN)C(=O)N[C@@H](CCCCN)C(=O)N[C@@H](CCCCN)C(=O)N[C@@H](CC(C)C)C(=O)N[C@@H](CCCCN)C(=O)N[C@@H](CCCCN)C(=O)N[C@@H](CCCCN)C(N)=O [LYKRYILRKFKFLKKKLKKK] |  |  |  |  |  |  |  |  |  |  | MIC (Staphylococcus aureus MR): 24 µM (≈ 64 µg/mL)
3 | CC(=O)N[C@@H](Cc1c[nH]c2ccccc12)C(=O)N[C@@H](CCCN=C(N)N)C(=O)N[C@@H](CCCCN)C(=O)N[C@@H](CC(C)C)C(=O)N[C@@H](Cc1c[nH]c2ccccc12)C(=O)N[C@@H](CCCN=C(N)N)C(=O)NCC(=O)NCC(=O)N[C@@H](CC(C)C)C(=O)N[C@@H](CCCCN)C(=O)N[C@@H](CCCN=C(N)N)C(=O)N[C@@H](Cc1c[nH]c2ccccc12)C(=O)N[C@@H](CC(C)C)C(=O)N[C@@H](CCCCN)C(N)=O [WRKLWRGGLKRWLK] |  |  |  |  |  |  |  |  |  |  | MIC [2]: 8 µM (≈ 15.4 µg/mL); MIC [8]: 4 µM (≈ 7.7 µg/mL); MIC [9]: 16 µM (≈ 30.8 µg/mL); MIC [10]: 8 µM (≈ 15.4 µg/mL); MIC [7]: 8 µM (≈ 15.4 µg/mL); MIC (Escherichia coli UB1005): 4 µM (≈ 7.7 µg/mL); MIC [11]: 2 µM (≈ 3.85 µg/mL); MIC [12]: 8 µM (≈ 15.4 µg/mL)
4 | CC[C@H](C)[C@H](NC(=O)[C@@H](NC(=O)[C@@H]1CCCN1C(=O)[C@H](C)NC(=O)[C@@H](NC(=O)[C@H](Cc1cnc[nH]1)NC(=O)[C@@H]1CCCN1C(=O)[C@H](CC(C)C)NC(=O)[C@H](CC(C)C)NC(=O)[C@H](Cc1cnc[nH]1)NC(=O)[C@H](CCCCN)NC(=O)[C@H](C)NC(=O)[C@@H](NC(=O)[C@H](CO)NC(=O)CNC(=O)[C@H](CC(C)C)NC(=O)[C@@H](NC(=O)[C@H](CCCCN)NC(=O)[C@H](Cc1ccccc1)NC(=O)[C@H](CC(C)C)NC(=O)CN)C(C)C)C(C)C)C(C)C)[C@@H](C)CC)C(=O)N[C@@H](C)C(=O)N[C@@H](CCC(=O)O)C(=O)N[C@@H](CCCCN)C(=O)N[C@@H](CC(C)C)C(N)=O [GLFKVLGSVAKHLLPHVAPIIAEKL] |  | 18.9 (≈ 50 µg/mL) | 9.43 (≈ 25 µg/mL) | 18.9 (≈ 50 µg/mL) | > 37.7 | 4.53 (≈ 12 µg/mL) | 9.43 (≈ 25 µg/mL) | 1.13 (≈ 3 µg/mL) | 4.53 (≈ 12 µg/mL) |  | MIC (Enterobacter cloacae): ≥ 37.7 µM; MIC (Enterococcus faecalis): ≥ 37.7 µM; MIC [2]: 4.53 µM (≈ 12 µg/mL); MIC [6]: 4.53 µM (≈ 12 µg/mL); MIC (Pseudomonas aeruginosa): > 37.7 µM
5 | CC[C@H](C)[C@H](NC(=O)[C@@H](NC(=O)[C@H](C)NC(=O)[C@H](Cc1ccccc1)NC(=O)[C@H](CC(C)C)NC(=O)CN)C(C)C)C(=O)N[C@@H](CCCCN)C(=O)N[C@@H](CCCCN)C(=O)N[C@H](C(=O)N[C@@H](C)C(=O)N[C@@H](CCCCN)C(=O)N[C@H](C(=O)N[C@H](C(=O)N[C@@H](CCCCN)C(=O)N[C@@H](CCCCN)C(=O)N[C@@H](CC(C)C)C(N)=O)[C@@H](C)CC)C(C)C)C(C)C [GLFAVIKKVAKVIKKL] |  | 14.2 (≈ 25 µg/mL) | 28.5 (≈ 50 µg/mL) | ≥ 57 | > 57 | ≥ 57 | 14.2 (≈ 25 µg/mL) | 1.71 (≈ 3 µg/mL) | 6.84 (≈ 12 µg/mL) | 14.2 (≈ 25 µg/mL) | 
6 | CC[C@H](C)[C@H](NC(=O)[C@@H](NC(=O)[C@H](CO)NC(=O)[C@H](C)NC(=O)[C@@H](NC(=O)[C@H](CCCCN)NC(=O)[C@H](CCCCN)NC(=O)[C@@H](NC(=O)[C@@H](NC(=O)[C@H](CC(=O)O)NC(=O)[C@H](C)NC(=O)[C@H](CC(C)C)NC(=O)CN)C(C)C)[C@@H](C)CC)C(C)C)C(C)C)C(=O)NCC(=O)NCC(=O)N[C@@H](CC(C)C)C(N)=O [GLADVIKKVASVIGGL] |  | ≥ 32.5 | ≥ 64.9 | ≥ 64.9 | > 64.9 | ≥ 64.9 | ≥ 32.5 | ≥ 64.9 | ≥ 64.9 | 64.9 (≈ 99.9 µg/mL) | 
7 | CC(C)C[C@H](NC(=O)[C@H](CC(C)C)NC(=O)[C@H](CC(C)C)NC(=O)[C@H](CC(C)C)NC(=O)[C@H](CC(C)C)NC(=O)[C@H](CC(C)C)NC(=O)[C@H](CC(C)C)NC(=O)[C@@H](N)CCCCN)C(=O)N[C@@H](CCCCN)C(N)=O [KLLLLLLLK] | ≥ 100 |  |  |  |  |  |  |  |  |  | 
8 | CC[C@H](C)[C@H](NC(=O)[C@H](CCCCN)NC(=O)[C@H](CO)NC(=O)[C@H](C)NC(=O)[C@@H](NC(=O)[C@H](CCCCN)NC(=O)[C@H](CCCCN)NC(=O)[C@@H](NC(=O)[C@@H](NC(=O)[C@H](CC(=O)O)NC(=O)[C@H](Cc1ccccc1)NC(=O)[C@H](CC(C)C)NC(=O)CN)C(C)C)[C@@H](C)CC)C(C)C)C(=O)N[C@@H](CCCCN)C(=O)NCC(=O)N[C@@H](CC(C)C)C(N)=O [GLFDVIKKVASKIKGL] |  | ≥ 58.3 | ≥ 58.3 | ≥ 58.3 | > 58.3 | ≥ 58.3 | ≥ 58.3 | 3.5 (≈ 6 µg/mL) | ≥ 58.3 | > 58.3 | 
9 | CC(C)C[C@H](NC(=O)[C@H](CCCCN)NC(=O)[C@H](CC(C)C)NC(=O)[C@H](CC(C)C)NC(=O)[C@H](CC(C)C)NC(=O)[C@H](CC(C)C)NC(=O)[C@H](CC(C)C)NC(=O)[C@@H](N)CC(C)C)C(=O)N[C@@H](CCCCN)C(N)=O [LLLLLLKLK] | ≥ 100 |  |  |  |  |  |  |  |  |  | 
10 | C[C@H](NC(=O)[C@H](C)NC(=O)[C@H](CCCCN)NC(=O)[C@H](C)NC(=O)[C@H](C)NC(=O)[C@H](C)NC(=O)[C@H](CCCCN)NC(=O)[C@H](Cc1ccccc1)NC(=O)[C@@H](N)Cc1c[nH]c2ccccc12)C(=O)N[C@@H](C)C(=O)N[C@@H](CCCCN)C(=O)N[C@@H](Cc1ccccc1)C(=O)N[C@@H](Cc1c[nH]c2ccccc12)C(N)=O [WFKAAAKAAAKFW] |  |  |  |  |  |  |  |  |  |  | MIC [14]: 32 µM (≈ 47.8 µg/mL); MIC [9]: 16 µM (≈ 23.9 µg/mL); MIC [10]: 8 µM (≈ 12 µg/mL); MIC [5]: 4 µM (≈ 5.98 µg/mL); MIC [6]: 8 µM (≈ 12 µg/mL); MIC [7]: 16 µM (≈ 23.9 µg/mL); MIC (Escherichia coli UB1005): 4 µM (≈ 5.98 µg/mL); MIC [11]: 8 µM (≈ 12 µg/mL); MIC [12]: 32 µM (≈ 47.8 µg/mL)

Now from value to compound, other results behind:

Row | MIC [1] [µM] | MIC (Bacillus cereus) [µM] | MIC (Streptococcus uberis) [µM] | MIC (Pasteurella multocida) [µM] | MIC (Escherichia coli) [µM] | MIC (Listeria innocua) [µM] | MIC (Micrococcus luteus) [µM] | MIC (Leuconostoc lactis) [µM] | MIC [13] [µM] | MIC (Staphylococcus aureus) [µM] | SMILES | further results
11 | 3.12 (≈ 4.51 µg/mL) |  |  |  |  |  |  |  |  |  | CC(C)C[C@H](NC(=O)[C@H](Cc1c[nH]c2ccccc12)NC(=O)[C@H](Cc1c[nH]c2ccccc12)NC(=O)[C@H](CC(C)C)NC(=O)[C@H](CCCN=C(N)N)NC(=O)[C@H](Cc1c[nH]c2ccccc12)NC(=O)[C@H](CC(C)C)NC(=O)[C@H](Cc1c[nH]c2ccccc12)NC(=O)[C@@H](N)Cc1c[nH]c2ccccc12)C(N)=O [WWLWRLWWL] | 
12 |  |  |  |  |  |  |  |  |  | > 66.3 | CC(C)C[C@H](NC(=O)[C@@H](N)CCCN=C(N)N)C(=O)N[C@@H](C)C(=O)N[C@@H](CCCN=C(N)N)C(=O)N[C@@H](CCCN=C(N)N)C(=O)N[C@H](C(=O)N[C@H](C(=O)N[C@@H](CCCN=C(N)N)C(=O)N[C@@H](CCCN=C(N)N)C(=O)N[C@H](C(=O)N[C@@H](C)C(=O)N[C@@H](CCCN=C(N)N)C(N)=O)C(C)C)C(C)C)C(C)C [RLARRVVRRVAR] | MIC (Staphylococcus aureus MR): ≥ 66.3 µM
13 | ≥ 100 |  |  |  |  |  |  |  |  |  | CC(C)C[C@H](NC(=O)[C@H](CC(C)C)NC(=O)[C@H](CCCCN)NC(=O)[C@H](CC(C)C)NC(=O)[C@H](CC(C)C)NC(=O)[C@@H](N)Cc1c[nH]c2ccccc12)C(N)=O [WLLKLL] | 
